Reference: patent publication US8853242B2, “Nitrogenous-ring acylguanidine derivative” (Astellas Pharma Inc., priority 2009, dated 2014)

Legend:
Male ICR mouse [1] = test: Hyperactivity (quantity of motion) induced by methamphetamine (MAP) in mice; format: in vivo; details: oral dose 0.1 mg/kg; MAP 1.5 mg/kg; P<0.05
Description: (§1) The improvement effect of compound of formula (I) on schizophrenia was evaluated by measuring the quantity of motion inhibited by administration of the compound in a model in which the symptoms were induced by methamphetamine (hereinafter abbreviated as MAP) and MK-801.
(§2) The animal was taken out of a breeding cage, orally administered with a test compound, and then placed into a cage for breeding. After 30 minutes, the animal was put into a cage for measurement, and the quantity of motion with the test compound alone was measured. Further, after 30 to 90 minutes, the animal was taken out, and subcutaneously or intraperitoneally administered with a drug for increasing the quantity of motion (MAP; 1.5 mg/kg or MK-801; 0.3 mg/kg, dissolved in physiological saline, respectively). Then, the quantity of motion for a certain period of time (60 minutes) was measured using a device for measuring the quantity of motion (CompACT AMS manufactured by Muromachi Kikai Co., Ltd.) by means of an infrared sensor.
For a normal mouse (a mouse administered with physiological saline) and a mouse administered with a drug for increasing the quantity of motion, a Student's T test was performed for evaluation for each interval. For a group administered with the test compound, an assay was performed using a solvent (vehicle) group and a Dunnett's T test. […]

human 5-HT5A receptor = human 5-HT5A receptor (Homo sapiens (Human), UniProt P47898); test: Test on a human 5-HT5A receptor binding inhibition ([3H]5-CT); details: membrane from HEK293 cells expressing human 5-HT5A receptor, Ki calculated from IC50
Male ddY mouse = test: Spontaneous alternation behavior (Y-maze) induced by Scoporamine in mice; format: in vivo; details: Scoporamine 0.5 mg/kg i.p.
Description: The improvement effect of compound of formula (I) on cognitive impairment of dementia and schizophrenia was evaluated by a known test method as a model with short-term learning disorder.
After 10 to 30 minutes from oral administration of the test compound, 0.5 mg/kg of Scoporamine or 0.15 mg/kg of MK-801 (in the case of a normal group, physiological saline was administered) was intraperitoneally administered. After 20 minutes, the test was conducted. In addition, solvent (vehicle) was orally administered to the normal group (to which physiological saline was administered) and to the control group (to which 0.5 mg/kg of Scoporamine or 0.15 mg/kg of MK-801 was administered), when the test compound was administered.
A mouse was placed at the end of one arm of a Y-maze having arms with the same length in three directions, and then allowed to explore freely and the number of arm entries was counted for 8 minutes. Further, spontaneous alternation behavior was defined as entries into all three different arms on consecutive occasions, and the ratio of the number of instances of this behavior to the total number of the entries was calculated as an alternation rate by the following formula: Alternation rate(%)=Number of spontaneous alternation behaviors/(Total number of entries−2)×100.
If a significant difference between the normal group and the control group (Student's T test) was approved in the alternation rate (%), it was considered to have learning disorder by the administration of Scoporamine or MK-801. By carrying out a Dunnett's test on the group administered with the test compound with respect to the control group, the presence or absence of effect of the test compound on learning disorder was evaluated. For each assay, it was considered that there was a tendency when p<0.10 and there was a significant difference when p<0.05.

Male ICR mouse [2] = test: Hyperactivity (quantity of motion) induced by MK-801 in mice; format: in vivo; details: MK-801 0.3 mg/kg, P<0.05
Description: as §1, §2
For a normal mouse (a mouse administered with physiological saline) and a mouse administered with a drug for increasing the quantity of motion, a Student's T test was performed for evaluation for each interval. For a group administered with the test compound, an assay was performed using a solvent (vehicle) group and a Dunnett's T test. For the evaluation, if there was a significant difference (P<0.05), it was considered that there is an effect.

Chain of human 5-HT5A receptor (P47898 whole entry): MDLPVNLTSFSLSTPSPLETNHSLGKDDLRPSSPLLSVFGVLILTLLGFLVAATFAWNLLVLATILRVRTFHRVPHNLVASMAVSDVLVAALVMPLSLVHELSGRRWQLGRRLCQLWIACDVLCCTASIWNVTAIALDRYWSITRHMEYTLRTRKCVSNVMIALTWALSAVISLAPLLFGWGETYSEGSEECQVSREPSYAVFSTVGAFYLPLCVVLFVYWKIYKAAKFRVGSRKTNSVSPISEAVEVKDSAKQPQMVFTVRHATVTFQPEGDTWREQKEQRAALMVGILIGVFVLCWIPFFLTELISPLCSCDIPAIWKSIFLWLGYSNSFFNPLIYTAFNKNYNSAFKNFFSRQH

Row | SMILES | hyperactivity induced by MAP (Male ICR mouse [1]) | Ki (human 5-HT5A receptor; [3H]5-CT binding inhibition) [nM] | spontaneous alternation behavior induced by Scoporamine (Male ddY mouse; oral dose 0.01 mg/kg) | hyperactivity induced by MK-801 (Male ICR mouse [2]; oral dose 0.03 mg/kg) | spontaneous alternation behavior induced by Scoporamine (Male ddY mouse; oral dose 0.001 mg/kg) | hyperactivity induced by MK-801 (Male ICR mouse [2]; oral dose 0.01 mg/kg) | Ki (human 5-HT5A receptor; [3H]5-CT binding) [nM] | spontaneous alternation behavior induced by Scoporamine (Male ddY mouse; oral dose 0.003 mg/kg)
1 | NC(N)=NC(=O)c1ccc2c(F)cnc(-c3c(F)cccc3F)c2c1 [Example 148] | significantly inhibited | 1.4 | significantly inhibited | significantly inhibited | – | – | – | –
2 | NC(N)=NC(=O)c1ccc2c(F)cnc(-c3ccccc3F)c2c1 [Example 160] | – | 3.3 | – | – | significantly inhibited | significantly inhibited | – | –
3 | Cc1cnc(-c2ccccc2F)c2cc(C(=O)N=C(N)N)ccc12 [Example 192] | – | 1.8 | – | – | – | significantly inhibited | 1 to 10 | significantly inhibited
